Patent US10449206B2, “Indolealkylamino-withasteroid conjugates and method of use” (Natreon, Inc., priority 2011, dated 2019)
Where a name gives a salt, the structure may show the parent alone. Marks after values point to notes of the source that are not given here.

Legend:
[1] = system: Scopolamine-induced amnesic mice; assay: Scopolamine hydrobromide-induced amnesia, transfer latency on elevated plus maze; settings: for Transfer Latency, Day 8: learning trial; for % Decrease in Transfer Latency, Mean ± SD: Table 16
Method: The elevated plus maze is used to measure the memory learning activity in mice; however, transfer latency, i.e., the time elapsed between the movement of the animal from an open to an enclosed arm was markedly shortened if the animal had previously experienced entering open and closed arms.
Retention was recorded after 24 hrs (9th day) and after an interval of one week (16th day).
Drug protocol. The animals were divided into 7 groups (Group I-VII) of eight animals in each group. Group I received vehicle (0.3% CMC) only and served as vehicle control. Groups II-VII were treated with the respective test drugs, as per the details mentioned in Table 1 below, for 16 days. […] Transfer Latency was recorded after 45 minutes of the drug administration on 8th day (learning trial) and 24 hrs (9th day) and one week (16th day) after learning trial.
Retention in elevated plus maze test was used to assess the memory functions in test animals. The plus maze consists of two open opposite arms, (50×10 cm) length×width, crossed with two enclosed arms of same dimensions with walls 40 cm high. The arms are connected with a central square, (10×10 cm) to give the apparatus a plus-sign appearance. The maze was kept elevated 50 cm above the floor in a dimly lit room. On day 8, mice were individually placed on far end of one of the open arms facing away from the center and transfer latency (TL) on day 8 was recorded. TL is the time taken by the mouse to move into any one of the covered arms with all its four legs. […] On day 9, the mice were again placed on the far end of the open arm and time taken by the mice to enter the enclosed arm, transfer latency (TL) day 9, was recorded. Similarly after an interval of one week, on day 16, the transfer latency (TL) day 16 was again recorded.
The retention scores were obtained for each animal by calculating percent decrease in latency period by the formula: % decrease in TL=(L1−L0/L0)×100
where, L0=initial transfer latency period in seconds, and L1=transfer latency after 24 hrs, or one week.

[2] = target: acetylcholinesterase (AChE) (Homo sapiens, UniProt P22303); assay: In vitro acetylcholinesterase (AChE) activity assay, method of Ellman et al. with acetylthiocholine iodide as substrate; assay type: biochemical; settings: for IC50: Mean ± SD of three replicates, synthetic conjugates, read-out: Acetylcholinesterase inhihitory activity IC50 (converted)
Chain of acetylcholinesterase (AChE) (P22303 32-614, species assumed): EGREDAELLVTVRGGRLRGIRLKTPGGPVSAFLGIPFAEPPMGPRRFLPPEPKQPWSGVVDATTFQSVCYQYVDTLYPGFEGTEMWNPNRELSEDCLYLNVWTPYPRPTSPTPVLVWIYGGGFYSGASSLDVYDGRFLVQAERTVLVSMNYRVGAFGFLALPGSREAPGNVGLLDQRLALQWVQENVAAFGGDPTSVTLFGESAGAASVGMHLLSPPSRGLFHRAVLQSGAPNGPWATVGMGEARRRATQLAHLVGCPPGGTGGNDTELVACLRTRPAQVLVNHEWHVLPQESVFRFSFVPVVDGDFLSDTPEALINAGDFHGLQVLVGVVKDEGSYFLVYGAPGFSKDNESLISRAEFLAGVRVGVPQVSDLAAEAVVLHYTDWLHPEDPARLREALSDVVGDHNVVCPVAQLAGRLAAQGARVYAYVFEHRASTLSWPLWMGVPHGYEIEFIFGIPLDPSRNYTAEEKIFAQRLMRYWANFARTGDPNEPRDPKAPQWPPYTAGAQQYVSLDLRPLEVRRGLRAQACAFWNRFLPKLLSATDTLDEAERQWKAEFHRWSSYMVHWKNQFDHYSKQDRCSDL
Method: The acetylcholinesterase (AChE) assay was performed by the method of Ellman et al., with minor modification, using acetylthiocholine Iodide as a substrate (G. L. Ellman, et al., “A new and rapid colorimetric determination of acetylcholinesterase activity,” Biochem. Pharmacol. (1961) 7: 88-95). Ellman's reaction mixture was made from a combination of 10 mM Acetylthiocholine iodide and 0.5 mM 5,5′-dithio-bis-(2-nitrobenzoic acid) in a 0.05 M sodium phosphate buffer (pH 7.2). The rates of hydrolysis by AChE were monitored spectrophotometrically using a 96-well microtiter plate reader. Each test sample (10 μl) and 0.05 M sodium phosphate buffer (30 μl) was mixed with the enzyme solution (10 μl). An Ellman's reaction mixture (50 μl) was further added to give a final volume of 100 μl, and the mixture was incubated at 37° C. for 30 min. Absorbance at 450 nm was recorded immediately after adding the Ellman's reaction mixture. Reading was repeated for 10 min at 2 min intervals to verify that the reaction occurred linearly. Blank reaction was measured by substituting saline for the enzyme (Y. K. Chung, et al., “Inhibitory effect of ursolic acid purified from Origanum majorana L. on the acetylcholinesterase,” Mol. Cells (2001) 11: 137-143).
The acetylcholinesterase (AChE) assay was performed by the method of Ellman et. al., with minor modification, using acetylthiocholine Iodide as a substrate (G. L. Ellman, et al., “A new and rapid colorimetric determination of acetylcholinesterase activity,” Biochem. Pharmacol. (1961) 7: 88-95). Ellman's reaction mixture was made from a combination of 10 mM Acetylthiocholine iodide and 0.5 mM 5,5′-dithio-bis-(2-nitrobenzoic acid) in a 0.05 M sodium phosphate buffer (pH 7.2). The rates of hydrolysis by AChE were monitored spectrophotometrically using a 96-well microtiter plate reader. Each test sample (10 μl) and 0.05 M sodium phosphate buffer (30 μl) was mixed with the enzyme solution (10 μl). An Ellman's reaction mixture (50 μl) was further added to give a final volume of 100 μl, and the mixture was incubated at 37° C. for 30 min. Absorbance at 450 nm was recorded immediately after adding the Ellman's reaction mixture. Reading was repeated for 10 min at 2 min intervals to verify that the reaction occurred linearly. Blank reaction was measured by substituting saline for the enzyme (Y. K. Chung, et al., “Inhibitory effect of ursolic acid purified from Origanum majorana L. on the acetylcholinesterase,” Mol. Cells (2001) 11: 137-143).

[3] = system: brain tissue Malondialdehyde (MDA); assay type: in vivo, Swiss Albino mice; settings: day 16; test sample p.o. (50/20/30/1/1 mg/kg) + SH 0.5 mg/kg i.p.; mean ± SEM, n=4
Excerpt: Estimation of lipid peroxidation.
Alzheimer's disease (AD) is an irreversible neurodegenerative disorder having symptoms including confusion, memory loss, and mood swings. The beta-amyloid peptide (BAP), with 39-42 amino acid residues, plays a significant role in the development of AD. Although there is no cure for AD, it can be managed with available drugs, but only to a small degree in a small subset of patients. […] In this study, the lipid peroxidation levels in brains of different treatment groups were measured by estimating the brain tissue Malondialdehyde (MDA) concentration. 5.

mice = assay: Open-field exploratory behavior test, anxiety paradigm; parameters: species or system Swiss Albino mice; settings: mouse, in vivo
Method: Drug preparation and administration of doses.
Study design. The behavioral tests conducted with multiple seven-dose schedules. The mice were tested only once after the completion of the drug treatment schedule in the elevated plus maze and open field. The studies were carried out in a sound proof room to avoid disturbances to the animals during the behavioral studies. Exposure to a novel environment is associated with emotional disturbance and anxiety. […] Anxiety is also associated with augmented autonomic activity resulting in increased defecation and urination. All these effects are accentuated by anxiogenic drugs and attenuated by anxiolytics. Standard screening procedures such as open field method and elevated plus maze test were used to screen the anxiolytic effect of drugs in comparison with a standard drug, Diazepam.
Open-field exploratory behavior test. The open field exploratory apparatus is similar to that of Bronstein (P. M. Bronstein, “Open field behaviour of the rat as a function of age: cross sectional and longitudinal investigations,” J. Comp. Physiol. Psycol. (1972) 80: 335-341). It is made of plywood and consists of squares (61×61 cm) with high walls. […] The ratio between the number of times the animal crossed the central and the number of times the animal crossed the peripheral square is calculated.

[4] = Example 7B, synthetic conjugates 1 and 5 mg/kg p.o. 16 days
[5] = Table 15, conjugate 1 mg/kg p.o. + SH 0.5 mg/kg i.p., mean ± SD, n=8
[6] = Table 15, conjugate 1 mg/kg p.o., mean ± SD, n=8
[7] = Table 15, conjugate 5 mg/kg p.o. + SH 0.5 mg/kg i.p., mean ± SD, n=8
[8] = Table 15, conjugate 5 mg/kg p.o., mean ± SD, n=8
[9] = after 24 h (day 9), conjugate 1 mg/kg p.o. + SH 0.5 mg/kg i.p., n=8
[10] = after 24 h (day 9), conjugate 5 mg/kg p.o. + SH 0.5 mg/kg i.p., n=8
[11] = Table 17, after 1 week (day 16), conjugate 1 mg/kg p.o. + SH 0.5 mg/kg i.p., n=8
[12] = Table 17, after 1 week (day 16), conjugate 5 mg/kg p.o. + SH 0.5 mg/kg i.p., n=8
[13] = Table 2, SH 0.5 mg/kg i.p. alone, mean ± SEM
[14] = Table 15, SH 0.5 mg/kg i.p. alone, mean ± SD

Structure (SMILES)	effect on Scopolamine-induced amnesia (in words) [1, 4]	Transfer Latency, Day 9 [1, 5]	Transfer Latency, Day 16 [1, 5]	Transfer Latency, Day 8 [1, 6]	Transfer Latency, Day 9 [1, 7]	Transfer Latency, Day 16 [1, 7]	Transfer Latency, Day 8 [1, 8]	% Decrease in Transfer Latency, Mean ± SD [1, 9]	% Decrease in Transfer Latency, Mean ± SD [1, 10]	% Decrease in Transfer Latency, Mean ± SEM [1, 11]	% Decrease in Transfer Latency, Mean ± SEM [1, 12]	in vitro acetylcholinesterase inhibitory activity (in words) [2]	IC50 [2]	other results
COc1ccc2[nH]cc(CCNC3CC(=O)[C@]4(C)[C@H]5CC[C@]6(C)[C@@H]([C@H](C)[C@H]7CC(C)=C(CO)C(=O)O7)CC[C@H]6[C@@H]5C[C@H]5O[C@]54[C@H]3O)c2c1 (stereo partly shown)	significantly attenuated and reversed the Scopolamine-induced amnesia	76.63 ± 33.95 s	43.13 ± 12.43 s	139.1 ± 25.05 s	37.25 ± 4.43^bb s	18.00 ± 4.14^bbb s	141.00 ± 35.66 s	45.62 ± 16.51%	72.18 ± 6.60. %	69.13 ± 5.38%	85.79 ± 9.92^bb %	good dose-dependent in-vitro acetylcholinesterase inhibitory activity	149 µM	–
CN1[C@@H]2C[C@@H](OC(=O)[C@H](CO)c3ccccc3)C[C@H]1[C@@H]1O[C@@H]12 [SH, Scopolamine Hydrobromide, reference compound]	–	–	–	–	–	–	–	–	–	–	–	–	–	induction of amnesia (in words) ([1]; SH 0.5 mg/kg i.p. alone vs vehicle): produced amnesia in animals; Transfer Latency, Day 8 ([1]; Table 2, SH 0.5 mg/kg i.p. alone group, mean ± SEM): 171.50 ± 16.08 s; Transfer Latency, Day 9 [1, 13]: 143.90 ± 15.30 s; Transfer Latency, Day 16 [1, 13]: 133.10 ± 15.95 s; % Decrease in Transfer Latency, Mean ± SEM ([1]; Table 3, after 24 h (day 9), SH 0.5 mg/kg i.p. alone): 14.91 ± 5.75%; % Decrease in Transfer Latency, Mean ± SEM ([1]; Table 4, after 1 week (day 16), SH 0.5 mg/kg i.p. alone): 22.11 ± 5.03%; Transfer Latency, Day 8 ([1]; Table 15, SH 0.5 mg/kg i.p. alone group, mean ± SD): 160.00 ± 66.68 s; Transfer Latency, Day 9 [1, 14]: 106.00 ± 42.81^aa s; Transfer Latency, Day 16 [1, 14]: 48.17 ± 12.73 ^aaa s; % Decrease in Transfer Latency, Mean ± SD ([1]; after 24 h (day 9), SH 0.5 mg/kg i.p. alone): 29.86 ± 17.79%; % Decrease in Transfer Latency, Mean ± SEM ([1]; Table 17, after 1 week (day 16), SH 0.5 mg/kg i.p. alone): 63.54 ± 18.87^aa %
CC1=C(CO)C(=O)O[C@@H]([C@@H](C)[C@H]2CC[C@H]3[C@@H]4C[C@H]5O[C@]56[C@@H](O)C(NCCc5c[nH]c7ccccc57)CC(=O)[C@]6(C)[C@H]4CC[C@]23C)C1 (stereo partly shown) [Tryptamino-withaferin-A conjugate]	significantly attenuated and reversed the Scopolamine-induced amnesia	56.17 ± 21.99^b s	16.50 ± 9.52^bbb s	178.00 ± 117.90 s	51.67 ± 15.28 ^b s	15.17 ± 10.09^bbb s	159.00 ± 126.20 s	54.97 ± 27.54%	59.93 ± 13.31%	88.10 ± 6.17^b %	85.72 ± 11.96^bb %	good dose-dependent in-vitro acetylcholinesterase inhibitory activity	56.1 µM	–
CC1=C(CO)C(=O)O[C@@H]([C@@H](C)[C@H]2CC[C@H]3[C@@H]4C[C@H]5O[C@]56[C@@H](O)C=CC(=O)[C@]6(C)[C@H]4CC[C@]23C)C1 [Withaferin-A, Withaferin A, reference compound]	–	–	–	–	–	–	–	–	–	–	–	only feeble inhibitory activity	–	MDA Content, brain tissue [3]: 4.77 ± 0.07 nmol/mL; effect on Scopolamine-induced amnesia (in words) ([1]; Example 4A, WS extract and fractions p.o. 16 days): did not protect from or attenuate the Scopolamine-induced amnesia; Transfer Latency, Day 9 ([1]; Table 2, 24 h after SH 0.5 mg/kg i.p., test sample p.o. (50/20/30/1/1 mg/kg), mean ± SEM, n=8): 124.00 ± 13.27 s; Transfer Latency, Day 8 ([1]; Table 2, test sample p.o. daily (WS-74 50, Ace Sol 20, Ace Insol 30, IAEF-A 1, Withaferin-A 1 mg/kg), mean ± SEM, n=8): 180.40 ± 8.04 s; Transfer Latency, Day 16 ([1]; Table 2, one week after SH 0.5 mg/kg i.p., test sample p.o. 16 days (50/20/30/1/1 mg/kg), mean ± SEM, n=8): 114.90 ± 13.10 s; % Decrease in Transfer Latency, Mean ± SEM ([1]; Table 3, after 24 h (day 9), test sample p.o. (50/20/30/1/1 mg/kg) + SH 0.5 mg/kg i.p., n=8): 29.28 ± 9.43%; % Decrease in Transfer Latency, Mean ± SEM ([1]; Table 4, after 1 week (day 16), test sample p.o. (50/20/30/1/1 mg/kg) + SH 0.5 mg/kg i.p., n=8): 34.33 ± 9.30%; anxiolytic effect in open field test (in words) (mice): did not show any anxiolytic effect
